The record followed here is US11203587B2, “Thyroid hormone receptor beta agonist compounds” (Terns, Inc., priority 2018, dated 2021).

One assay deals with T1, THR beta-LBD (Homo sapiens, UniProt P10828).
T1 construct: THR alpha-LBD (0.4 nM final concentration) or THR beta-LBD (1.0 nM final concentration) was added; purchased ThermoFisher
T1 sequence (P10828 217-461 limits assumed): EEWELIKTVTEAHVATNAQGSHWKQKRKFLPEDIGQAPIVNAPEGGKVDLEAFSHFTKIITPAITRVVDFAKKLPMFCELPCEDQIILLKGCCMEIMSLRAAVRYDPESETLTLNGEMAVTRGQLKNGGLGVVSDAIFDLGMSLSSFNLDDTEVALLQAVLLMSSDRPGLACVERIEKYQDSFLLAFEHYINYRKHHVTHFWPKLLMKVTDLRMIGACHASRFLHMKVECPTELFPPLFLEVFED
The experiment in a line: LanthaScreen TR-FRET Thyroid Receptor beta Coactivator Assay. It is filed as biochemical. As to conditions: for THRβ-Selectivity: THR beta over THR alpha, derived from T3-selectivity normalized data; for EC50: TR-FRET coactivator assay, 2 hours incubation at room temperature, run in duplicate multiple times, average data, read-out: EC50 THRβ-FRET. Here is the method: LanthaScreen™ TR-FRET Thyroid Receptor alpha Coactivator Assay kit (ThermoFisher) and LanthaScreen™ TR-FRET Thyroid Receptor beta Coactivator Assay kit (ThermoFisher) were used for agonist compound screening. […] Buffer C (ThermoFisher) was added to each well before the 4× mixture of fluorescein-SCR2-2 coactivator (200 nM final concentration), Terbium-labeled anti-GST antibody (2 nM final concentration), and THR alpha-LBD (0.4 nM final concentration) or THR beta-LBD (1.0 nM final concentration) was added.

A further assay deals with T2, THR alpha-LBD (Homo sapiens, UniProt P10827).
T2 construct: THR alpha-LBD (0.4 nM final concentration) or THR beta-LBD (1.0 nM final concentration) was added; purchased ThermoFisher
The experiment in a line: LanthaScreen TR-FRET Thyroid Receptor alpha Coactivator Assay. The assay is classed as biochemical. As to conditions: 2 hours incubation at room temperature, run in duplicate multiple times, average data, read-out: EC50 THRα-FRET. On the procedure: Example B1: Time-Resolved Fluorescence Resonance Energy Transfer (TR-FRET) Assay for Thyroid Hormone Receptor Agonist Screening
LanthaScreen™ TR-FRET Thyroid Receptor alpha Coactivator Assay kit (ThermoFisher) and LanthaScreen™ TR-FRET Thyroid Receptor beta Coactivator Assay kit (ThermoFisher) were used for agonist compound screening. Compounds in DMSO were diluted using ECHO Liquid Handler (Labcyte Inc.) into 384 plates in 10-point 3-fold series in duplicate (5 micro M final top concentration). Buffer C (ThermoFisher) was added to each well before the 4× mixture of fluorescein-SCR2-2 coactivator (200 nM final concentration), Terbium-labeled anti-GST antibody (2 nM final concentration), and THR alpha-LBD (0.4 nM final concentration) or THR beta-LBD (1.0 nM final concentration) was added. After 2 hours incubation at room temperature in the dark, the TR-FRET signal was measured on an EnVision plate reader (PerkinElmer) with excitation at 340 nm and dual emission readout at 495 and 520 nm with the delay time of 100 micro second and the integration time of 200 micro second. The ratio of emission signal at 520 and at 495 was used to calculate EC50 using GraphPad Prism (GraphPad Software). […] Compounds' THR-beta selectivity values in Table 2 are derived from T3-selectivity normalized data.
On the technique in general: Time-resolved FRET reads energy transfer from a long-lived donor to a nearby acceptor.

T2 sequence (P10827 163-410 isoform P10827-2 limits assumed, other chains not shown): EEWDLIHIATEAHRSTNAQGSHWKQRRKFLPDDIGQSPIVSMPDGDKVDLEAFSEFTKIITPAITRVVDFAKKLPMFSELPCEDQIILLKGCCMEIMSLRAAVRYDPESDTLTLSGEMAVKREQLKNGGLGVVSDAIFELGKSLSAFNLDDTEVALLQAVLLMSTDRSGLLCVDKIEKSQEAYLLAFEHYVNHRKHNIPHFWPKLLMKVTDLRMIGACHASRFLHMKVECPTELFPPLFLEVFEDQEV

In general, EC50 refers to the concentration giving half of the maximal effect. On to `CC(O)c1cc(Oc2c(Cl)cc(-c3n[nH]c(=O)[nH]c3=O)cc2Cl)n[nH]c1=O` (stereo not drawn) [Compound 34, 6-(3,5-dichloro-4-((5-(1-hydroxyethyl)-6-oxo-1,6-dihydropyridazin-3-yl)oxy)phenyl)-1,2,4-triazine-3,5(2H,4H)-dione], for which, on THR beta-LBD, the THRβ-Selectivity is 8.6 and the EC50 was 400 nM. For the same compound, the 50% effective concentration (EC50) at THR alpha-LBD turned out to be 1160 nM.
The corresponding values for `CC(=O)c1cc(Oc2c(Cl)cc(-c3n[nH]c(=O)[nH]c3=O)cc2Cl)nn(C)c1=O` [Compound 35, 6-(4-((5-acetyl-1-methyl-6-oxo-1,6-dihydropyridazin-3-yl)oxy)-3,5-dichlorophenyl)-1,2,4-triazine-3,5(2H,4H)-dione] are 10.6, 665 nM and 1870 nM.
